Experimental data taken from US8785457B2 (Cellzome Limited, priority 2009, dated 2014).
Like-named read-outs stand apart in the source and are kept apart here.

Tests used:
Salmonella strain TA98 = tested on: Salmonella strain TA98
Protocol: (§1) Certain compounds of the invention were tested in a miniaturized screening version of the Ames test that requires a small amount of compound compared with the regulatory test. The Ames fluctuation assay is performed in 384-well plates using two Salmonella strains, TA98 and TA100. TA98 detects frameshifts and TA100 detects base substitutions leading to missense mutations. Whereas the original Ames test is carried out by plating bacteria onto selective agar plates, the Ames fluctuation assay is carried out in liquid culture using 384-well plates. The bacterial plates are incubated with the test compounds for 96 hours, after which bacterial growth is measured spectrophotometrically using a pH indicator that changes color in response to the acidification of the media due to bacterial growth.
(§2) Metabolic activation is achieved by using rat liver S9 fraction (0.2 mg/ml). To prevent false negatives due to bacteriocidal or bacteriostatic effects, a bacterial cytotoxicity assay is conducted in parallel with the Ames fluctuation assay. Compounds are typically tested in both bacterial strains with and without S9, at four concentrations (5, 10, 50 and 100 μM) with n=48 wells. A bacterial cytotoxicity test is conducted in parallel at 8 concentrations (with 100 μM as the highest concentration) and n=3 wells. Four reference compounds (quercetin, streptozotocin, aminoanthracene and mitomycin C) are included in all experiments.
(§3) The significance of the positive counts between the treatment (in the presence of compound) and the control (in the absence of test compound) are calculated using the one-tailed Fisher's exact test—the significance levels are reported as follows: • Weak positive, if 0.01≦p≦0.05, denoted as “+” • Strong positive, if 0.001≦p≦0.01, denoted as “++” • Very strong positive, if p<0.001, denoted as “+++” • Hyphens (−) indicate negative results

Salmonella strain TA100 = tested on: Salmonella strain TA100
Protocol: as §1, §2, §3

[1] = tested on: Salmonella strains, TA98 and TA100; conditions: with rat liver S9 fraction
Source text: The Ames Salmonella/microsome mutagenicity assay (Salmonella test; Ames test) is a standard, short-term bacterial reverse mutation assay specifically designed to detect a wide range of chemical substances that can produce genetic damage leading to gene mutations. The test employs several histidine dependent Salmonella strains each carrying different mutations in various genes of the histidine operon (Mortelmans and Zeiger 2000, Mutation Research 455, 29-60). […]
Certain compounds of the invention were tested in a miniaturized screening version of the Ames test that requires a small amount of compound compared with the regulatory test. […] The bacterial plates are incubated with the test compounds for 96 hours, after which bacterial growth is measured spectrophotometrically using a pH indicator that changes color in response to the acidification of the media due to bacterial growth. […]
as §3

Row | Compound | Ames fluctuation assay TA98 +S9 (Salmonella strain TA98; TA98, +S9, 5 μM) | Ames fluctuation assay TA98 +S9 (Salmonella strain TA98; TA98, +S9, 10 μM) | Ames fluctuation assay TA98 +S9 (Salmonella strain TA98; TA98, +S9, 50 μM) | Ames fluctuation assay TA98 +S9 (Salmonella strain TA98; TA98, +S9, 100 μM) | Ames fluctuation assay TA100 +S9 (Salmonella strain TA100; TA100, +S9, 5 μM) | Ames fluctuation assay TA100 +S9 (Salmonella strain TA100; TA100, +S9, 10 μM) | Ames fluctuation assay TA100 +S9 (Salmonella strain TA100; TA100, +S9, 50 μM) | Ames fluctuation assay TA100 +S9 (Salmonella strain TA100; TA100, +S9, 100 μM) | Ames assay result [1]
1 | CCOC(=O)N1Cc2nc(-c3ccc(N)cc3)nc(N3CCOC[C@@H]3C)c2C1 [Example 137] | +++ +++ +++ +++ (Very strong positive, if p<0.001, denoted as “+++”) | +++ +++ +++ +++ (Very strong positive, if p<0.001, denoted as “+++”) | +++ +++ +++ +++ (Very strong positive, if p<0.001, denoted as “+++”) | +++ +++ +++ +++ (Very strong positive, if p<0.001, denoted as “+++”) | − | − | ++ (Strong positive, if 0.001≦p≦0.01, denoted as “++”) | − | 
2 | CCOC(=O)N1Cc2nc(-c3ccc(N)c(F)c3)nc(N3CCOC[C@@H]3C)c2C1 [Intermediate 19] | +++ +++ +++ +++ (Very strong positive, if p<0.001, denoted as “+++”) | +++ +++ +++ +++ (Very strong positive, if p<0.001, denoted as “+++”) | +++ +++ +++ +++ (Very strong positive, if p<0.001, denoted as “+++”) | +++ +++ +++ +++ (Very strong positive, if p<0.001, denoted as “+++”) | − | +++ (Very strong positive, if p<0.001, denoted as “+++”) | +++ (Very strong positive, if p<0.001, denoted as “+++”) | +++ (Very strong positive, if p<0.001, denoted as “+++”) | 
3 | CCOC(=O)N1Cc2nc(-c3ccc(N)cc3)nc(N3CCOC[C@@H]3C)c2C1 [Metabolite Example 137, (S)-ethyl 2-(4-aminophenyl)-4-(3-methylmorpholino)-5H-pyrrolo[3,4-d]pyrimidine-6(7H)-carboxylate] |  |  |  |  |  |  |  |  | Ames positive
